Laboratory results: US20250304567A1, “PYRROLIDIONE DERIVATIVES AS INHIBITORS OF NF KAPPA B INDUCING KINASE” (priority 2022, published 2025)

Assays:
[1] = target: Recombinant Human NF-kappaB-Inducing Kinase (NIK/MAP3K14) (Homo sapiens, UniProt Q99558); test: Inhibition of auto-phosphorylation of recombinant human NIK/MAP3K14 activity (AlphaScreen); assay type: biochemical; details: 5 μM ATP, 1 nM NIK, average if tested more than once
Outline: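 GST-tagged NIK (1 nM) auto-phosphorylation with 5 μM ATP, 2 h at 25 °C, pH 7.5 Tris buffer, 0.7% DMSO; stopped with anti-phospho-IKK Ser176/180 antibody and read by AlphaScreen. Signal normalized to full-activity and no-enzyme/no-ATP controls; IC50 from sigmoidal fit of % inhibition vs log concentration.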

[2] = system: p-IKKa levels in L363 (NIK translocated multiple myeloma) cells; test: Effect of compounds on p-IKKa levels in L363 (NIK translocated multiple myeloma) cells (AlphaLISA SureFire Ultra p-IKKa Ser176/180); assay type: cell-based, human; details: Homo sapiens, L-363, p-IKKa levels in L363 cells; average if tested more than once; read-out: Assay 2 IC50
Outline: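 L363 multiple myeloma cells, BAFF-stimulated overnight (250 ng/ml), then 6 h at 37 °C with compound (11-point 1:3 series, 0.3% DMSO) plus BAFF and 10 μM MG132. p-IKKa Ser176/180 read by AlphaLISA SureFire Ultra; IC50 from sigmoidal fit normalised to stimulated and unstimulated controls.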

Chain of Recombinant Human NF-kappaB-Inducing Kinase (NIK/MAP3K14) (Q99558 whole entry): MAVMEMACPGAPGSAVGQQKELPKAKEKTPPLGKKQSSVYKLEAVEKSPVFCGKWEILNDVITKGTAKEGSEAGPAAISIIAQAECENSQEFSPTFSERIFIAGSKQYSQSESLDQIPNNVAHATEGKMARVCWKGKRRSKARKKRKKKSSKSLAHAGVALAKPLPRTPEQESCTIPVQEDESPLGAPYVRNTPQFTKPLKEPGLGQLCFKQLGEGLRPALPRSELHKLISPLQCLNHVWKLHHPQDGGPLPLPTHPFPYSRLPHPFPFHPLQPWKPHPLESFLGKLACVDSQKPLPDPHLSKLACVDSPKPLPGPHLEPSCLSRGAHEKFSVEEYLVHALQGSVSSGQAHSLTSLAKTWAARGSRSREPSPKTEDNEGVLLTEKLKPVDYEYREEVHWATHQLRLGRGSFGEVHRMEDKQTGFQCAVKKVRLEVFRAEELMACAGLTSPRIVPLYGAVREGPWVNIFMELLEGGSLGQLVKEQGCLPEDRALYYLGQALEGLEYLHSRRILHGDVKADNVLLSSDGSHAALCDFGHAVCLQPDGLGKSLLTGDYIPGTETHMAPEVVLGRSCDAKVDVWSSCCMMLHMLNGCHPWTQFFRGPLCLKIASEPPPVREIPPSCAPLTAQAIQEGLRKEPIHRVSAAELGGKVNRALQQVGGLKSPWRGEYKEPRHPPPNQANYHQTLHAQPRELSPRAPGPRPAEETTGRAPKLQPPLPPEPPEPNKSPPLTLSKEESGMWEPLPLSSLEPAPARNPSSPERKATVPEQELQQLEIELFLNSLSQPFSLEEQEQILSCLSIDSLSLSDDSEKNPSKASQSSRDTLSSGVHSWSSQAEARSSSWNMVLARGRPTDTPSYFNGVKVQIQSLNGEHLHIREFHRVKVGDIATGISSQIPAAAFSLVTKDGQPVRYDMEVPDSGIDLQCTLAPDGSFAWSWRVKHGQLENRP

Row | Compound | IC50 [1] | IC50 [2]
1 | Cc1cnc(CNc2nccc(-c3csc(-c4cccc([C@]5(O)CCN(C)C5=O)c4)n3)n2)o1 [Example 200] | < 100 nM | > 501 nM
2 | CN1CCC(Nc2nccc(-c3csc(-c4cccc([C@]5(O)CCN(C)C5=O)c4)n3)n2)C1=O (stereo partly drawn) [Example 201] | > 501 nM | > 501 nM
3 | Cc1cc(CNc2nccc(-c3csc(-c4cccc([C@]5(O)CCN(C)C5=O)c4)n3)n2)ccn1 [Example 202] | < 100 nM | > 501 nM
4 | Cc1ccc(CNc2nccc(-c3csc(-c4cccc([C@]5(O)CCN(C)C5=O)c4)n3)n2)nc1 [Example 203] | < 100 nM | > 501 nM
5 | Cc1ccc(CNc2nccc(-c3csc(-c4cccc([C@]5(O)CCN(C)C5=O)c4)n3)n2)cn1 [Example 204] | < 100 nM | > 501 nM
6 | Cc1cccc(CNc2nccc(-c3csc(-c4cccc([C@]5(O)CCN(C)C5=O)c4)n3)n2)n1 [Example 205] | < 100 nM | > 501 nM
7 | Cc1cccnc1CNc1nccc(-c2csc(-c3cccc([C@]4(O)CCN(C)C4=O)c3)n2)n1 [Example 206] | < 100 nM | > 501 nM
8 | CC(Nc1nccc(-c2csc(-c3cccc([C@]4(O)CCN(C)C4=O)c3)n2)n1)c1ncccn1 (stereo partly drawn) [Example 207] | < 100 nM | > 501 nM
9 | Cc1cnc(CNc2nccc(-c3csc(-c4cccc([C@]5(O)CCN(C)C5=O)c4)n3)n2)nc1 [Example 208] | > 501 nM | > 501 nM
10 | Cc1cc(CNc2nccc(-c3csc(-c4cccc([C@]5(O)CCN(C)C5=O)c4)n3)n2)nn1C [Example 209] | < 100 nM | > 501 nM
11 | Cc1nn(C)cc1CNc1nccc(-c2csc(-c3cccc([C@]4(O)CCN(C)C4=O)c3)n2)n1 [Example 210] | < 100 nM | > 501 nM
12 | CN1CC[C@@](O)(c2cccc(-c3nc(-c4ccnc(NCCc5cn(C)cn5)n4)cs3)c2)C1=O [Example 211] | > 501 nM | > 501 nM
13 | CC(=O)N1CC[C@@H](Nc2nccc(-c3csc(-c4cccc([C@]5(O)CCN(C)C5=O)c4)n3)n2)C1 [Example 212] | < 100 nM | > 501 nM
14 | CN1CCO[C@@H](CNc2nccc(-c3csc(-c4cccc([C@]5(O)CCN(C)C5=O)c4)n3)n2)C1 [Example 213] | > 501 nM | > 501 nM
15 | CN1CC[C@@](O)(c2cccc(-c3nc(-c4ccnc(N[C@@H]5[C@@H]6COC[C@@H]65)n4)cs3)c2)C1=O [Example 214] | 100 to 500 nM | > 501 nM
16 | CO[C@H]1C[C@H](Nc2nccc(-c3csc(-c4cccc([C@]5(O)CCN(C)C5=O)c4)n3)n2)C1 [Example 215] | < 100 nM | > 501 nM
17 | CN1CC[C@@](O)(c2cccc(-c3nc(-c4ccnc(N[C@@H]5CCC[C@H]5O)n4)cs3)c2)C1=O [Example 216] | 100 to 500 nM | > 501 nM
18 | CN1CC[C@@](O)(c2cccc(-c3nc(-c4ccnc(NCc5ccncn5)n4)cs3)c2)C1=O [Example 217] | 100 to 500 nM | > 501 nM
19 | CN1CC[C@@](O)(c2cccc(-c3nc(-c4ccnc(NCc5ncccn5)n4)cs3)c2)C1=O [Example 218] | 100 to 500 nM | > 501 nM
20 | Cc1ncccc1CNc1nccc(-c2csc(-c3cccc([C@]4(O)CCN(C)C4=O)c3)n2)n1 [Example 219] | < 100 nM | > 501 nM
21 | CN1CC[C@@](O)(c2cccc(-c3nc(-c4ccnc(NC5CC6CC(O)C5C6)n4)cs3)c2)C1=O (stereo partly drawn) [Example 220] | 100 to 500 nM | > 501 nM
22 | CC(=O)N1CC[C@H](Nc2nccc(-c3csc(-c4cccc([C@]5(O)CCN(C)C5=O)c4)n3)n2)C1 [Example 221] | 100 to 500 nM | > 501 nM
23 | CN1CC(Nc2nccc(-c3csc(-c4cccc([C@]5(O)CCN(C)C5=O)c4)n3)n2)CCC1=O (stereo partly drawn) [Example 222] | < 100 nM | > 501 nM
24 | CN1CCC[C@H](Nc2nccc(-c3csc(-c4cccc([C@]5(O)CCN(C)C5=O)c4)n3)n2)C1=O [Example 223] | > 501 nM | > 501 nM
25 | CN1CC[C@@](O)(c2cccc(-c3nc(-c4ccnc(NC5(c6ccccn6)CC5)n4)cs3)c2)C1=O [Example 224] | 100 to 500 nM | > 501 nM
26 | CN1CC[C@@](O)(c2cccc(-c3nc(-c4ccnc(NC5CCc6cccnc65)n4)cs3)c2)C1=O (stereo partly drawn) [Example 225] | 100 to 500 nM | > 501 nM
27 | CN1CC[C@@](O)(c2cccc(-c3nc(-c4ccnc(NC5(c6ncccn6)CC5)n4)cs3)c2)C1=O [Example 226] | > 501 nM | > 501 nM

Row | Compound | IC50 [1] | IC50 [2]
28 | CN1CC[C@@](O)(c2cccc(-c3nc(-c4ccnc(NC5CCOc6cccnc65)n4)cs3)c2)C1=O (stereo partly drawn) [Example 227] | < 100 nM | > 501 nM
29 | CN1CC[C@@](O)(c2cccc(-c3nc(-c4ccnc(NC5CCN(C6COC6)CC5)n4)cs3)c2)C1=O [Example 228] | > 501 nM | > 501 nM
30 | CC(Nc1nccc(-c2csc(-c3cccc([C@]4(O)CCN(C)C4=O)c3)n2)n1)C(=O)N1CCN(C)CC1 (stereo partly drawn) [Example 229] | 100 to 500 nM | > 501 nM
31 | CN1CC[C@@](O)(c2cccc(-c3nc(-c4ccnc(NC5COC5)n4)cs3)c2)C1=O [Example 230] | < 100 nM | 100 to 500 nM
32 | CN1CC[C@@](O)(c2cccc(-c3nc(-c4ccnc(NCCCNS(C)(=O)=O)n4)cs3)c2)C1=O [Example 231] | 100 to 500 nM | > 501 nM
33 | CN1CC[C@@](O)(c2cccc(-c3nc(-c4ccnc(NCCCS(C)(=O)=O)n4)cs3)c2)C1=O [Example 232] | 100 to 500 nM | > 501 nM
34 | Cc1nc(Nc2nccc(-c3csc(-c4cccc([C@]5(O)CCN(C)C5=O)c4)n3)n2)sc1C [Example 233] | < 100 nM | 100 to 500 nM
35 | CN1CC[C@@](O)(c2cccc(-c3nc(-c4ccnc(NCCC(F)(F)F)n4)cs3)c2)C1=O [Example 236] | < 100 nM | > 501 nM
36 | CN1CC[C@@](O)(c2cccc(-c3nc(-c4ccnc(NCCNS(C)(=O)=O)n4)cs3)c2)C1=O [Example 237] | < 100 nM | > 501 nM
37 | CN1CC[C@@](O)(c2cccc(-c3nc(-c4ccnc(NCCCOCC(F)(F)F)n4)cs3)c2)C1=O [Example 238] | 100 to 500 nM | > 501 nM
38 | CN1CC[C@@](O)(c2cccc(-c3nc(-c4ccnc(NCCC(C)(C)O)n4)cs3)c2)C1=O [Example 239] | 100 to 500 nM | > 501 nM
39 | CN1CC[C@@](O)(c2cccc(-c3nc(-c4ccnc(NCC5(O)CC5)n4)cs3)c2)C1=O [Example 240] | 100 to 500 nM | > 501 nM
40 | CN1CC[C@@](O)(c2cccc(-c3nc(-c4ccnc(NC5CCC(F)(F)CC5)n4)cs3)c2)C1=O [Example 241] | < 100 nM | > 501 nM
41 | COCCCNc1nccc(-c2csc(-c3cccc([C@]4(O)CCN(C)C4=O)c3)n2)n1 [Example 242] | 100 to 500 nM | > 501 nM
42 | CN1CC[C@@](O)(c2cccc(-c3nc(-c4ccnc(N[C@H]5CC[C@@H](C#N)CC5)n4)cs3)c2)C1=O [Example 243] | < 100 nM | > 501 nM
43 | Cc1cn(CC(F)(F)F)nc1Nc1nccc(-c2csc(-c3cccc([C@]4(O)CCN(C)C4=O)c3)n2)n1 [Example 245] | > 501 nM | > 501 nM
44 | CN1CC[C@@](O)(c2cccc(-c3nc(-c4ccnc(NCCCN5CCOCC5)n4)cs3)c2)C1=O [Example 246] | > 501 nM | > 501 nM
45 | Cc1csc(Nc2nccc(-c3csc(-c4cccc([C@]5(O)CCN(C)C5=O)c4)n3)n2)n1 [Example 247] | < 100 nM | 100 to 500 nM
46 | CN1CC[C@@](O)(c2cccc(-c3nc(-c4ccnc(Nc5nc(C(F)(F)F)cs5)n4)cs3)c2)C1=O [Example 248] | < 100 nM | 100 to 500 nM
47 | Cc1ncc(Nc2nccc(-c3csc(-c4cccc([C@]5(O)CCN(C)C5=O)c4)n3)n2)s1 [Example 249] | > 501 nM | > 501 nM
48 | CN1CC[C@@](O)(c2cccc(-c3nc(-c4ccnc(N[C@H]5CCOC5)n4)cs3)c2)C1=O [Example 250] | < 100 nM | > 501 nM
49 | CN1CC[C@@](O)(c2cccc(-c3nc(-c4ccnc(N[C@@H]5CCOC5)n4)cs3)c2)C1=O [Example 251] | < 100 nM | > 501 nM
50 | CN1CC[C@@](O)(c2cccc(-c3nc(-c4ccnc(N[C@H]5CC[C@H](O)C5)n4)cs3)c2)C1=O [Example 252] | 100 to 500 nM | > 501 nM
51 | CN1CC[C@@](O)(c2cccc(-c3nc(-c4ccnc(N[C@H]5CC[C@@H](O)C5)n4)cs3)c2)C1=O [Example 253] | < 100 nM | > 501 nM
52 | CN1CC[C@@](O)(c2cccc(-c3nc(-c4ccnc(N[C@H]5CCC[C@H](O)C5)n4)cs3)c2)C1=O [Example 254] | 100 to 500 nM | > 501 nM
53 | CN1CC[C@@](O)(c2cccc(-c3nc(-c4ccnc(N[C@H]5CCC[C@@H](O)C5)n4)cs3)c2)C1=O [Example 255] | 100 to 500 nM | > 501 nM
54 | CN1CC[C@@](O)(c2cccc(-c3nc(-c4ccnc(Nc5cc(C(F)(F)F)n(C)n5)n4)cs3)c2)C1=O [Example 256, (R)-3-Hydroxy-1-methyl-3-(3-(4-(2-((1-methyl-5-(trifluoromethyl)-1H-pyrazol-3-yl)amino)pyrimidin-4-yl)thiazol-2-yl)phenyl)pyrrolidin-2-one] | < 100 nM | > 501 nM
